Source: US20080102082A1, “Formulation for Oral Administration Having a Health-Promoting Effect on the Cardiovascular System” (ROTTAPHARM S.p.A., priority 2004, published 2008)
Where two headings read alike, the source gives them in different places.

Columns and labels:
[1] = NOAEL, repeated daily doses in the animal; assay type: in vivo; conditions: extrapolated from the animal NOAEL
Description: In man the NOAEL is 6 mg.

[2] = doses repeated daily in the animal; cited from earlier work
[3] = in man; cited from earlier work
[4] = biological target: T1, HMG-CoA reductase (HMG-CoA-r) (Homo sapiens, UniProt P04035); conditions: competitive enzymatic inhibition; cited from earlier work
T1 sequence (P04035 1-888): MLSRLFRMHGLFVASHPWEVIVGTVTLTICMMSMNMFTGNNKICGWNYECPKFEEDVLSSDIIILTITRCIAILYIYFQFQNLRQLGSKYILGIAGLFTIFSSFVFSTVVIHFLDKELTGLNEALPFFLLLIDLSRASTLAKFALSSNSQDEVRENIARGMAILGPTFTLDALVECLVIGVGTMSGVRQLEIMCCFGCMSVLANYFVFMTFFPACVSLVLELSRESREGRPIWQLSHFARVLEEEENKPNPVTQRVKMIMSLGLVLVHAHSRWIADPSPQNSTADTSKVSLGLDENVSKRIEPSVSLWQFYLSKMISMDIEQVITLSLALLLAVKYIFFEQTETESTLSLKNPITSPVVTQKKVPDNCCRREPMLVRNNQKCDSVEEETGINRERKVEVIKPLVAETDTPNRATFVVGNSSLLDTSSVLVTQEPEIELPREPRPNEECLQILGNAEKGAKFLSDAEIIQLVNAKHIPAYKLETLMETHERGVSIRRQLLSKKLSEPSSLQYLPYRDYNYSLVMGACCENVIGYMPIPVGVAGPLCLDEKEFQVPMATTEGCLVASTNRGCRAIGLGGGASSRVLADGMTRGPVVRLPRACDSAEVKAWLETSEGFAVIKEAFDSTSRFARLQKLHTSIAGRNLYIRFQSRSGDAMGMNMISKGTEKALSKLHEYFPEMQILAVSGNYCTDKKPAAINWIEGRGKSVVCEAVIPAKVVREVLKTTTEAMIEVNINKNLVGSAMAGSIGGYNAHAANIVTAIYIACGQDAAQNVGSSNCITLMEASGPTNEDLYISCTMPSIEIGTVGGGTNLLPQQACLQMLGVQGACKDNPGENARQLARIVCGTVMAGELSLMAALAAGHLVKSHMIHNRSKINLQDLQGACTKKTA

SMILES	NOAEL of the animal, corresponding amount in man [1]	NOAEL (no observed adverse effect level) [2] [mg/kg]	NOAEL (no observed adverse effect level) [3] [mg]	activity for the enzyme relative to the natural substrate HMG-CoA [4] [times]
CC1=C(/C=C/C(C)=C/C=C/C(C)=C/C=C/C=C(C)/C=C/C=C(C)/C=C/C2=C(C)C(=O)[C@@H](O)CC2(C)C)C(C)(C)C[C@H](O)C1=O [AX, 3,3′-dihydroxy-β,β′-carotene-4,4′-dione]	more than 80 g	1340	6	–
CC[C@H](C)C(=O)O[C@H]1C[C@@H](C)C=C2C=C[C@H](C)[C@H](CC[C@@H]3C[C@@H](O)CC(=O)O3)[C@H]21 [Monacolin K]	–	–	–	2000
